Test results: ChEMBL document CHEMBL1275254 (2010)
Converted amounts (≈) assume the structure as drawn.

test system: Burkholderia pseudomallei; assay: Antimicrobial activity against Burkholderia pseudomallei 1026b after 24 hrs by broth microdilution method; assay type: functional

Row | Molecule | MIC [µg/mL]
1 | O=C(N[C@H](CO)[C@H](O)c1ccc([N+](=O)[O-])cc1)C(Cl)Cl [CHLORAMPHENICOL] | 8 (≈ 24.8 µM)
2 | GENTAMICIN | 512
3 | NC[C@H]1O[C@H](O[C@H]2[C@H](O)[C@@H](O[C@H]3O[C@H](CO)[C@@H](O)[C@H](N)[C@H]3O)[C@H](N)C[C@@H]2N)[C@H](O)[C@@H](O)[C@@H]1O [KANAMYCIN] | 64 (≈ 132 µM)
4 | CCC[C@@H]1C[C@@H](C(=O)N[C@@H]([C@H]2O[C@H](SC)[C@H](O)[C@@H](O)[C@H]2O)[C@H](C)Cl)N(C)C1 [CLINDAMYCIN] | > 4100
5 | CN[C@@H]1[C@H](O)[C@H](NC)[C@H]2O[C@@]3(O)C(=O)C[C@@H](C)O[C@H]3O[C@@H]2[C@H]1O [SPECTINOMYCIN] | 2050 (≈ 6160 µM)
6 | CN[C@@H]1[C@H](O[C@H]2[C@H](O[C@H]3[C@H](O)[C@@H](O)[C@H](N=C(N)N)[C@@H](O)[C@@H]3N=C(N)N)O[C@@H](C)[C@]2(O)C=O)O[C@@H](CO)[C@H](O)[C@H]1O [STREPTOMYCIN] | > 2050
7 | CC[C@H]1OC(=O)[C@H](C)[C@@H](O[C@H]2C[C@@](C)(OC)[C@@H](O)[C@H](C)O2)[C@H](C)[C@@H](O[C@@H]2O[C@H](C)C[C@H](N(C)C)[C@H]2O)[C@](C)(OC)C[C@@H](C)C(=O)[C@H](C)[C@@H](O)[C@]1(C)O [CLARITHROMYCIN] | 128 (≈ 171 µM)
8 | CC1COc2c(N3CCN(C)CC3)c(F)cc3c(=O)c(C(=O)O)cn1c23 (stereo not drawn) [OFLOXACIN] | 2 (≈ 5.53 µM)
